Experimental findings from PMC11760621, “Secondary metabolites of Alternaria alternate appraisal of their SARS-CoV-2 inhibitory and anti-inflammatory potentials” (PLOS ONE, 2025) are described below.

The test system of data set [1] is ACE-2 protein expression in HLMEC. The experiment in a line: Western blot of ACE-2 protein expression in HLMEC. The format is cell-based, human. The settings on record: 25 μM, 48 h, western blot vs untreated cells. Here is the method: HLMEC cells were seeded, cultured, and incubated with compounds 1–4 for 48h. RIPA buffer (Cell Signaling, Danvers, MA) was employed to obtain the entire-cell protein lysates. Bradford method was used to determine the concentration of protein. Western blot assay was done as previously stated using untreated cells as control. Anti-ACE-2 antibody [EPR24705-45] ab272500 (Abcam, Cambridge, UK) was used.
(§1) An experimental model of HLMEC was applied to study the effects of the endophytic compounds 1–4 on ACE-2 protein expression. Preceding this analysis, the cytotoxic effect of compounds 1–4 was determined on HLMEC using an MTT assay. HLMEC were treated with different dilutions of the test samples (0.39–100 μM) for 48 h. Compounds 1–4 being nontoxic (IC50>100 μM, Table 6).

Data set [2] concerns the target T1, TNF-α: TNFR2 (Homo sapiens, UniProt P01375).
T1 construct: purchased BPS bioscience
In words: TNFR2: TNF-α [Biotinylated] inhibitor screening assay. Particulars: in vitro kit, mean ± SD. The format is binding. From the text:
In vitro TNF-α [Biotinylated] inhibition assay. TNFR2: TNF-α [Biotinylated] inhibitor screening assay kit (BPS bioscience, Cornerstone Court W, Ste B San Diego, CA 92121) was used to screen for the in vitro inhibition of TNF-α binding to tumor necrosis factor receptor 2 (TNFR2) following the manufacturer’s protocol.

Data set [3] deals with ACE-2: SARS-CoV-2 Spike (RBD) (Homo sapiens, UniProt Q9BYF1). In words: ACE-2: Spike RBD (SARS-CoV-2) inhibitor screening colorimetric assay. The settings on record: in vitro colorimetric kit; mean ± SD; read-out: IC50, ACE2 spike RBD (SARS-CoV-2) inhibitory effect. The format is binding, human; SARS-CoV-2.
The test system of data set [4] is Human lung microvascular endothelial cells (HLMEC). The experiment in a line: MTT cell viability assay in HLMEC. The format is cell-based. Particulars: 48 h, read-out: IC50, viability of HLMEC. Here is the method: Human lung microvascular endothelial cells (HLMEC) were acquired from Lonza (Hayward, CA, USA). The cells were seeded in an endothelial cell growth medium (EGM-2 MV) (Lonza, Hayward, CA, USA) at 37°C and 5% CO2. Then, at 5 to 7 passages, the cells were plated in 100 μL/well EGM-2 MV medium in collagen-covered 96-well plates. The cells were grown for 3–5 days to reach the confluent layer. Cell viability was valued by the MTT Cell Growth Assay Kit (Sigma-Aldrich, Steinheim, Germany) using untreated cells as control.
as §1
A general note: Formazan colour is commonly taken as a measure of viable cells.

Data set [5] has as its system IL-6 mRNA in LPS-stimulated RAW 264.7 macrophages. In words: IL-6 gene expression (qRT-PCR) in LPS-induced RAW 264.7 cells. The format is cell-based. The settings on record: LPS (1 μg/mL)-stimulated RAW 264.7, sub IC50 concentration, relative to LPS control, referenced to Actb. The protocol:
(§2) Evaluation of pro-inflammatory cytokines (TNF- α and IL-6) using LPS-induced RAW 264.7 cells. RAW 264.7 macrophage cells were procured from the American Type Culture Collection (Manassas, VA, USA) and grown as previously described. In vitro Toxicology Assay Kit, MTT Based (Sigma-Aldrich, Saint Louis, Missouri, USA) was employed to establish cell viability at concentrations (1–250 μM). Treatment of RAW 264.7 cells and determination of the inhibitory effect of the active compounds at sub IC50 values on TNF- α and IL-6 gene expression in RAW264.7 cells were performed as mentioned before using LPs treated cells as control.
A general note: In qPCR the cycle at which signal appears reflects the starting amount.

Data set [6] in a line: Solubility observation of the isolated compound. The format is physicochemical. The settings on record: observation on the isolated oil. From the text:
In addition, there were complex multiplet overlapping signals for several hydrogen protons characteristic for different methylene groups laying in the same chemical environment (H- 5’/5’’, H-6’/6’’, H-11’/11’’ and 12’/12’’). […] In addition to two carbonyl carbons, one of which (C-1’/1’’ δC 167.7) is upfield due to its attachment to the aromatic ring while the other is downfield (C-9’/9’’, δC 174.0). The downfield shift of the two-methylene groups 3’/3’’ (δC, 68.2) and 7’/7’’ (δC 66.7) confirm their attachment to O-C = O. Moreover, the structure contained only one methine group at δC 38.7 (CH- 4’/4’’) and two methyl groups CH3-13’/13’’ and 14’/14’’ at δC 10.9 and 14.0, respectively. Furthermore, there were another five CH2 groups at δC 30.4, 23.7, 34.4, 25.0, and 29.1 for C-5’, 6’, 10’,11’, and 12’, respectively. H-H-COSY (Fig 1) established the correlation between the aromatic ring’s protons and that between the side chains’ protons. Additionally, HMBC data (Fig 1) confirmed the substitution of the aromatic ring through the correlation from H-2/5 ([…]) to C-3/4 (δC 130.9) and that between H-3/4 (δC 7.54) and C-2/5 (δC 128.8). The connectivity of the side chain to the aromatic ring at C-1 and C-6 was established through the correlation from H-2/5 (δH 7.72) to C-1`/1” (δC 167.7). […]

Data set [7] deals with TNF-α mRNA in LPS-stimulated RAW 264.7 macrophages. The experiment in a line: TNF-α gene expression (qRT-PCR) in LPS-induced RAW 264.7 cells. The settings on record: LPS (1 μg/mL)-stimulated RAW 264.7, sub IC50 concentration, relative to LPS control, referenced to Actb. The format is cell-based. The protocol:
as §2

The mark [8] stands for this setting: read-out: IC50, TNF-α: TNFR2 inhibitory effect.

Like-named read-outs stand apart in the source and are kept apart here.

T1 sequence (P01375 77-233 limits assumed): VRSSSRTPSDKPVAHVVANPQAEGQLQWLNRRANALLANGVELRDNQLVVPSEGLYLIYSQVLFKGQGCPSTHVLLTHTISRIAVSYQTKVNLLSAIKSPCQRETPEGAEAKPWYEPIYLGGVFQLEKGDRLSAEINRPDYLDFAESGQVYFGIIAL
Chain of ACE-2: SARS-CoV-2 Spike (RBD) (Q9BYF1 18-740): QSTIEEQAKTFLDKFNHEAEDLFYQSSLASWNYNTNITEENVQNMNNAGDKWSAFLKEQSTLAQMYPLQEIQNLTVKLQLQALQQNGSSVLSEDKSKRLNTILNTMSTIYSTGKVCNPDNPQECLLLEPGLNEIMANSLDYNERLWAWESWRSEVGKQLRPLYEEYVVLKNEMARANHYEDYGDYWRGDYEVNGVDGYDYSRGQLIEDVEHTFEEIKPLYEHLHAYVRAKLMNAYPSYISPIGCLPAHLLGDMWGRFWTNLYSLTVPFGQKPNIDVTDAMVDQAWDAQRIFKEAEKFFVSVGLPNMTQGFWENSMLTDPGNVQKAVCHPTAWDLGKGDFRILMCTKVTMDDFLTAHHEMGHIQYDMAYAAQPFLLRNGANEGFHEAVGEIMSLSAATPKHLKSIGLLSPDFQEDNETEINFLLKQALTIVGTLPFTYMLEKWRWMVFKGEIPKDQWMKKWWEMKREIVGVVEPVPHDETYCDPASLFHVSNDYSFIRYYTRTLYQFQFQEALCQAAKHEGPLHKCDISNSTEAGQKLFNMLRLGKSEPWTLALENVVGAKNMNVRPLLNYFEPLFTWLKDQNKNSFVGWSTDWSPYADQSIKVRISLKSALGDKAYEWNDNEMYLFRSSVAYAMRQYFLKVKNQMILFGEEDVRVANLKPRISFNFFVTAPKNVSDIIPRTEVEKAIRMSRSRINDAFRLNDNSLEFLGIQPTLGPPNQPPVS

With `CC1CCC2C(C1)c1ccccc1C1CCCCC(C)N12` (centres unmarked) [Compound 1, altenuline], the “ACE2% inhibition (ACE2 protein expression)” value (shortened to “ACE2% inhibition”) in data set [1] is reported as 49.65 ± 3.06 %. The IC50 (in general, the concentration that inhibits the measured activity by half) is 8.7 ± 0.34 µM in data set [2] (setting [8]), 15.5 ± 0.45 µM in data set [3] and > 100 µM in data set [4].
Consider `CCCCC(=O)OCCCC(C)COC(=O)c1ccccc1C(=O)OCC(C)CCCOC(=O)CCCC` (centres unmarked) [Compound 2, phthalic acid bis (7’/7’’ pentyloxy) isohexyl ester], for which the “IL-6 mRNA expression fold change” value in data set [5] amounted to 0.30 ± 0.02. Besides, in data set [1], the “ACE2% inhibition” value turned out to be 70.51± 4.80%. Also, the solubility in water result in data set [6] was “insoluble in water”. The IC50 in data set [2] (setting [8]) was 5.4 ± 0.33 µM; in data set [3] it was 10.4 ± 0.25 µM; in data set [4], > 100 µM. The “TNF-α mRNA expression fold change” value in data set [7] is given as 0.45 ± 0.07.
For `COc1cc(O)c2c(=O)oc3c(c2c1)C(C)CC3=O` (centres unmarked) [Compound 3, 1-deoxyrubralactone], the “ACE2% inhibition” value in data set [1] is listed as 29.91 ± 4.26 %. Besides, the figures for the IC50 in data set [3] and in data set [4] were 12.5 ± 0.46 µM and > 100 µM, respectively.
On to `COc1cc(O)c2c(=O)oc3cc(O)cc(C)c3c2c1` [Compound 4, alternariol-5-O-methyl ether], for which the “IL-6 mRNA expression fold change” value in data set [5] is recorded as 0.14 ± 0.01. Moreover, the “ACE2% inhibition” value in data set [1] came to 50.85 ± 4.34%. Further, the IC50 in data set [2] (IC50, TNF-α: TNFR2 inhibitory effect) is 4.97 ± 0.28 µM; in data set [3] it was 11.7 ± 0.34 µM; in data set [4] it was > 100 µM. The “TNF-α mRNA expression fold change” value in data set [7] turned out to be 0.28 ± 0.02.
